One assay has as its target GSK3α (Homo sapiens (Human), UniProt P49840). The assay is described as follows: GSK 3α enzyme inhibition (Method 2), Z-LYTE FRET. It is filed as biochemical. On the procedure:
(§1) The enzyme inhibitory activities of compounds disclosed herein are determined by FRET using synthetic peptides labelled with both donor and acceptor fluorophores (Z-LYTE, Invitrogen Ltd., Paisley, UK).
The inhibitory activities of compounds of the invention against the GSK 3α enzyme isoform (Invitrogen), are evaluated by determining the level of activation/phosphorylation of the target peptide. The GSK3-α protein (500 ng/mL, 2.5 μL) is mixed with the test compound (2.5 μL at either 4 μg/mL, 0.4 μg/mL, 0.04 μg/mL, or 0.004 μg/mL) for 2 hr at RT. The FRET peptide (8 μM, 2.5 μL), which is a phosphorylation target for GSK3α, and ATP (40 μM, 2.5 μL) are then added to the enzyme/compound mixture and the resulting mixture incubated for 1 hr. Development reagent (protease, 5 μL) is added for 1 hr prior to detection in a fluorescence microplate reader (Varioskan® Flash, ThermoFisher Scientific).
(§2) In all cases, the site-specific protease cleaves non-phosphorylated peptide only and eliminates the FRET signal. Phosphorylation levels of each reaction are calculated using the ratio of coumarin emission (donor) over fluorescein emission (acceptor), for which high ratios indicate high phosphorylation and low ratios indicate low phosphorylation levels. The percentage inhibition of each reaction is calculated relative to non-inhibited control and the 50% inhibitory concentration (IC50 value) is then calculated from the concentration-response curve.
This method follows the same steps as Method 1 above, but utilises a shorter period of mixing of the test compound (105 minutes instead of 2 hours) with the GSK3-α protein.

For assay [1], the system named is PBMCs. The experiment in a line: LPS-induced TNFα/IL-8 release in PBMC cells. The class given is cell-based. The settings on record: Homo sapiens, LPS-stimulated PBMCs, IL-8, read-out: IC50 Values for Inhibition of Cytokine Release PBMCs IL-8. On the procedure: Peripheral blood mononuclear cells (PBMCs) from healthy subjects are separated from whole blood using a density gradient (Lymphoprep, Axis-Shield Healthcare). The PBMCs are seeded in 96 well plates and treated with compounds at the desired concentration for 2 hours before addition of 1 ng/mL LPS (Escherichia Coli 0111:B4 from Sigma Aldrich) for 24 hours under normal tissue culture conditions (37° C., 5% CO2). The supernatant is harvested for determination of IL-8 and TNFα concentrations by sandwich ELISA (Duo-set, R&D systems) and read on the fluorescence microplate reader (Varioskan® Flash, ThermoFisher Scientific). The concentration at 50% inhibition (IC50) of IL-8 and TNFα production is calculated from the dose response curve.

For the next assay, the target named is p38 MAPKα (Homo sapiens (Human), UniProt Q16539). The experiment in a line: p38 MAPKα enzyme inhibition (Method 2), Z-LYTE FRET. The class given is biochemical. On the procedure: as §1
The inhibitory activities of test compounds against the p38 MAPKα isoform (MAPK14: Invitrogen), are evaluated indirectly by determining the level of activation/phosphorylation of the down-stream molecule, MAPKAP-K2. The p38 MAPKα protein (80 ng/mL, 2.5 μL) is mixed with the test compound (2.5 μL of either 4 μg/mL, 0.4 μg/mL, 0.04 μg/mL or 0.004 μg/mL) for 2 hr at RT. […] The mixture is incubated for 1 hr at RT. Development reagent (protease, […]) is added for 1 hr prior to detection in a fluorescence microplate reader (Varioskan® Flash, ThermoFisher Scientific).
This method follows the same steps as Method 1 above, but utilises a higher concentration of the p38 MAPKα protein (2.5 μL of 200 ng/mL protein instead of 2.5 μL of 80 ng/mL protein) for mixing with the test compound.
as §2

Another assay concerns the target c-Src (Homo sapiens (Human), UniProt P12931). The assay is described as follows: c-Src enzyme inhibition, Z-LYTE FRET. The class given is biochemical. On the procedure: as §1
(§3) The inhibitory activities of compounds of the invention against c-Src and Syk enzymes (Invitrogen), are evaluated in a similar fashion to that described hereinabove. The relevant enzyme (3000 ng/mL or 2000 ng/mL respectively, 2.5 μL) is incubated with the test compound (either 4 μg/mL, 0.4 μg/mL, 0.04 μg/mL, or 0.004 μg/mL, 2.5 μL each) for 2 hr at RT. The FRET peptides (8 μM. 2.5 μL), and appropriate ATP solutions (2.5 μL, 800 μM for c-Src, and 60 μM ATP for Syk) are then added to the enzymes/compound mixtures and incubated for 1 hr. Development reagent (protease, 5 μL) is added for 1 hr prior to detection in a fluorescence microplate reader (Varioskan® Flash, ThermoFisher Scientific).
as §2

A further assay deals with Syk (Homo sapiens (Human), UniProt P43405). The experiment in a line: Syk enzyme inhibition, Z-LYTE FRET. The class given is biochemical. On the procedure:
as §1, §3, §2

Assay [2] relates to PBMCs. The assay is described as follows: IL-2 and IFN gamma release in CD3/CD28 stimulated PBMC cells. The class given is cell-based. The settings on record: Homo sapiens. On the procedure: PBMCs from healthy subjects are separated from whole blood using a density gradient (Lymphoprep, Axis-Shield Healthcare). Cells are added to a 96 well plate pre-coated with a mixture of CD3/CD38 monoclonal antibodies (0.3 μg/mL eBioscience and 3 μg/mL BD Pharmingen respectively). Compound at the desired concentration is then added to the wells and the plate left for 3 days under normal tissue culture conditions. Supernatants are harvested and IL-2 and IFN gamma release determined by Sandwich ELISA (Duo-set, R&D System). The IC50 is determined from the dose response curve.

For assay [3], the system named is TNBS-induced colitis in mice. The experiment in a line: TNBS-induced colitis in mice. The class given is in vivo. The arrangement: Ulcer grade / LP inflammation: scale not given here. To be noted: Experiment 1, 2.5 mg/kg oral BID, 2 days. On the procedure:
On Day 0 of the study TNBS (200 μL) is administered intra-colonically via a plastic catheter followed by BID dosing of the vehicle, reference or test compound for 2 or 4 days. During the study animals are weighed every day and stool observations are made and recorded as a score, based on stool consistency. At the time of sacrifice on Day 2 (or Day 4) the large intestine is removed and the length and weight recorded. Sections of the colon are taken for either MPO analysis to determine neutrophil infiltration or for histopathology involving scoring to determine disease severity.

Setting [4] is: IL-2, read-out: IC50 Values for Inhibition of Cytokine Release PBMCs IL-2.

p38 MAPKα, sequence (Q16539 whole entry, canonical isoform): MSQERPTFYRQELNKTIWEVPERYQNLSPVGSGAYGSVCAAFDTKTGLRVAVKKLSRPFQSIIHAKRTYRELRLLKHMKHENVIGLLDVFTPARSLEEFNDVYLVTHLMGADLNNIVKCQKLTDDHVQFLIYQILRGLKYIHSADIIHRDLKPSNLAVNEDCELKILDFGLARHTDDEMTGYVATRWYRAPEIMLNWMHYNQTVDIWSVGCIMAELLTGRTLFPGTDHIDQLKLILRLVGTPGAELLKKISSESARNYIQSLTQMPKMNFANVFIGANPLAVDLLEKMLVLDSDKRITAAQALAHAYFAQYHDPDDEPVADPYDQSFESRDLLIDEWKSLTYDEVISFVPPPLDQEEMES
GSK3α, sequence (P49840 whole entry): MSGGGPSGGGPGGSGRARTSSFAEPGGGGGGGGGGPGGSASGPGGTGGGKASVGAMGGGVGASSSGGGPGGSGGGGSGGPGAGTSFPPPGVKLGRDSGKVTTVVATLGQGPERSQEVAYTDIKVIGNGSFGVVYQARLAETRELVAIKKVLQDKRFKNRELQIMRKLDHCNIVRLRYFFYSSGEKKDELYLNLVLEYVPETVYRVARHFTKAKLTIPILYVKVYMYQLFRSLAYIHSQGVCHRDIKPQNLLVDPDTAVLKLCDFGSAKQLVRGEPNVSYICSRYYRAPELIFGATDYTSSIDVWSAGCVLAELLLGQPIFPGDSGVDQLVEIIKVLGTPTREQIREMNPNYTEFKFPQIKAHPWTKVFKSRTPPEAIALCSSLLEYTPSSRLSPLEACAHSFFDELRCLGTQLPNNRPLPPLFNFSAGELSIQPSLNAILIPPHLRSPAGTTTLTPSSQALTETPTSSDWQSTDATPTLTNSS
c-Src, sequence (P12931 whole entry, looked up): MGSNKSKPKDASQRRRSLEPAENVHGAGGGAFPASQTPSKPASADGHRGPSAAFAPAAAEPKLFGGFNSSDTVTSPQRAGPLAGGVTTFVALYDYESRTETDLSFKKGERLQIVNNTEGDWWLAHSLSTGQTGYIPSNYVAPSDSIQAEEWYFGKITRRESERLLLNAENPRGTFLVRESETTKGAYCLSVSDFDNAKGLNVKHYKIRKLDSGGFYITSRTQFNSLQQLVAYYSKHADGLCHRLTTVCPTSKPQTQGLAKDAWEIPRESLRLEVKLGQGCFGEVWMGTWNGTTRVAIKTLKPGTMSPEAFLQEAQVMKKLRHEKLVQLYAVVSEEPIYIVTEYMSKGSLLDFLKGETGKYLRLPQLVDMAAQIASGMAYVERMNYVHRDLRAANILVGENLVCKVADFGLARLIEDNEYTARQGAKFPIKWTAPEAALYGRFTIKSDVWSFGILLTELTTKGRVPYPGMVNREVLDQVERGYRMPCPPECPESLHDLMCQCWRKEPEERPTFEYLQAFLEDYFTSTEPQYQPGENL

For the compound `C#CC(C)(C)c1cc(NC(=O)Nc2ccc(Oc3ccnc(Nc4cc(OCCN(C)C)ccn4)n3)c3ccccc23)n(-c2ccc(C)cc2)n1` [Example 11, 1-(4-((2-((4-(2-(Dimethylamino)ethoxy)pyridin-2-yl)amino)pyrimidin-4-yl)oxy)naphthalen-1-yl)-3-(3-(2-methylbut-3-yn-2-yl)-1-(p-tolyl)-1H-pyrazol-5-yl)urea], the 50% inhibitory concentration (IC50) (as a rule, the concentration at which inhibition is half-maximal) was above 10000 nM at GSK3α and 10.8 nM in the assay with PBMCs [1].
As to `C#CC(C)(C)c1cc(NC(=O)Nc2ccc(Oc3ccnc(Nc4cccc(OCCN5CCOCC5)n4)n3)c3ccccc23)n(-c2ccc(C)cc2)n1` [Example 16, 1-(3-(2-Methylbut-3-yn-2-yl)-1-(p-tolyl)-1H-pyrazol-5-yl)-3-(4-((2-((6-(2-morpholinoethoxy)pyridin-2-yl)amino)pyrimidin-4-yl)oxy)naphthalen-1-yl)urea], the concentration for half-maximal inhibition (IC50) was 148 nM on p38 MAPKα; 21 nM against c-Src; 348 nM against Syk; above 10000 nM against GSK3α; 17.7 nM with PBMCs [1].
As to `C#CC(C)(C)c1cc(NC(=O)Nc2ccc(Oc3ccnc(Nc4cc(C)c5[nH]ncc5c4)n3)c(Cl)c2Cl)n(-c2ccc(C)cc2)n1` [Example 9, 1-(2,3-Dichloro-4-((2-((7-methyl-1H-indazol-5-yl)amino)pyrimidin-4-yl)oxy)phenyl)-3-(3-(2-methylbut-3-yn-2-yl)-1-(p-tolyl)-1H-pyrazol-5-yl)urea], the half-maximal inhibitory concentration (IC50) against GSK3α is above 10000 nM; with PBMCs [1], 7.6 nM.
The like results for `C#CC(C)(C)c1cc(NC(=O)Nc2ccc(Oc3ccnc(Nc4cccc(OCCN(C)C)c4)n3)c3ccccc23)n(-c2ccc(C)cc2)n1` [Example 6, 1-(4-((2-((3-(2-(Dimethylamino)ethoxy)phenyl)amino)pyrimidin-4-yl)oxy)naphthalen-1-yl)-3-(3-(2-methylbut-3-yn-2-yl)-1-(p-tolyl)-1H-pyrazol-5-yl)urea] were, in that order, 243 nM and 0.6 nM.
The like results for `C#CC(C)(C)c1cc(NC(=O)Nc2ccc(Oc3ccnc(Nc4cccc(OCCN5CCOCC5)c4)n3)c3ccccc23)n(-c2ccc(C)cc2)n1` [Example 5, 1-(3-(2-Methylbut-3-yn-2-yl)-1-(p-tolyl)-1H-pyrazol-5-yl)-3-(4-((2-((3-(2-morpholinoethoxy)phenyl)amino)pyrimidin-4-yl)oxy)naphthalen-1-yl)urea] were, in that order, 602 nM and 1 nM.
For the compound `C#CC(C)(C)c1cc(NC(=O)Nc2ccc(Oc3ccnc(Nc4cccc(OCCN(C)C)n4)n3)c3ccccc23)n(-c2ccc(C)cc2)n1` [Example 10, 1-(4-((2-((6-(2-(Dimethylamino)ethoxy)pyridin-2-yl)amino)pyrimidin-4-yl)oxy)naphthalen-1-yl)-3-(3-(2-methylbut-3-yn-2-yl)-1-(p-tolyl)-1H-pyrazol-5-yl)urea], the IC50 against p38 MAPKα turned out to be 46 nM; against GSK3α, 1760 nM; in the assay with PBMCs [1], 1.7 nM; in the assay on PBMCs [2] (setting [4]) it was 7.1 nM.
With `C#CC(C)(C)c1cc(NC(=O)Nc2ccc(Oc3ccnc(Nc4ccccc4)c3)c3ccccc23)n(-c2ccc(C)cc2)n1` [Example 7, 1-(3-(2-Methylbut-3-yn-2-yl)-1-(p-tolyl)-1H-pyrazol-5-yl)-3-(4-((2-(phenylamino)pyridin-4-yl)oxy)naphthalen-1-yl)urea], the IC50 on p38 MAPKα is 271 nM; against c-Src, 81 nM; against Syk, 185 nM; on GSK3α, above 10000 nM; in the assay on PBMCs [1], 4 nM; in the assay on PBMCs [2] (IFNγ, read-out: IC50 Values for Inhibition of Cytokine Release PBMCs IFNγ), 21.8 nM. Besides, in the assay on PBMCs [2] (setting [4]), the 50% inhibitory concentration (IC50) was 139 nM.
`C#CC(C)(C)c1cc(NC(=O)Nc2ccc(Oc3ccnc(Nc4cc(OC)cc(OCCN5CCOCC5)c4)n3)c3ccccc23)n(-c2ccc(C)cc2)n1` [Example 8, 1-(4-((2-((3-Methoxy-5-(2-morpholinoethoxy)phenyl)amino)pyrimidin-4-yl)oxy)-naphthalen-1-yl)-3-(3-(2-methylbut-3-yn-2-yl)-1-(p-tolyl)-1H-pyrazol-5-yl)urea]: the IC50 against c-Src stood at 22 nM; against Syk it was 31 nM; on GSK3α, 2570 nM; with PBMCs [1] it was 1.4 nM.
Take `CCCC1O[C@@H]2C[C@H]3[C@@H]4CCC5=CC(=O)C=C[C@]5(C)[C@H]4[C@@H](O)C[C@]3(C)[C@]2(C(=O)CO)O1` (stereo partly shown) [Budesonide, reference compound]: the LP inflammation in assay [3] (TNBS + Vehicle 3.9 ± 0.3) worked out at 2.5 ± 0.4. In addition, the Ulcer grade in assay [3] (TNBS + Vehicle 4.0 ± 0.5) is 2.9 ± 0.6.
Take `C#CC(C)(C)c1cc(NC(=O)Nc2ccc(Oc3ccnc(Nc4cccc(OCCOCCOCCOC)n4)n3)c3ccccc23)n(-c2ccc(C)cc2)n1` [Example 17, 1-(4-((2-((6-(2-(2-(2-Methoxyethoxy)ethoxy)ethoxy)pyridin-2-yl)amino)pyrimidin-4-yl)oxy)naphthalen-1-yl)-3-(3-(2-methylbut-3-yn-2-yl)-1-(p-tolyl)-1H-pyrazol-5-yl)urea]: the IC50 on GSK3α is above 10000 nM; in the assay on PBMCs [1], 30.4 nM.
Take `C#CC(C)(C)c1cc(NC(=O)Nc2ccc(Oc3ccnc(Nc4cc(OC)cc(C(=O)NCCN5CCOCC5)c4)n3)c3ccccc23)n(-c2ccc(C)cc2)n1` [Example 4, 3-Methoxy-5-((4-((4-(3-(3-(2-methylbut-3-yn-2-yl)-1-(p-tolyl)-1H-pyrazol-5-yl)ureido)-naphthalen-1-yl)oxy)pyrimidin-2-yl)amino)-N-(2-morpholinoethyl)benzamide]: the IC50 on GSK3α was 539 nM; in the assay with PBMCs [1], 0.5 nM.
